Patent US7326718B2, “8-Substituted imidazopyridines” (Altana Pharma AG, priority 2002, dated 2008)

Assays:
[1] = system: pentagastrin-stimulated acid secretion of the perfused rat stomach; experiment: Secretion-inhibiting action on the perfused rat stomach (pentagastrin-stimulated acid secretion, intraduodenal administration in vivo); settings: dose 1 μmol/kg i.d., anaesthetized female CD rat, pentagastrin-stimulated (1 μg/kg i.v. infusion)
Description: Testing of the Secretion-Inhibiting Action on the Perfused Rat Stomach
In Table A which follows, the influence of the compounds according to the invention on the pentagastrin-stimulated acid secretion of the perfused rat stomach after intraduodenal administration in vivo is shown.
The abdomen of anaesthetized rats (CD rat, female, 200-250 g; 1.5 g/kg i.m. urethane) was opened after tracheotomy by a median upper abdominal incision and a PVC catheter was fixed transorally in the oesophagus and another via the pylorus such that the ends of the tubes just projected into the gastric lumen. The catheter leading from the pylorus led outward into the right abdominal wall through a side opening.
After thorough rinsing (about 50-100 ml), warm (37° C.) physiological NaCl solution was continuously passed through the stomach (0.5 ml/min, ph 6.8-6.9; Braun-Unita I). The pH (pH meter 632, glass electrode EA 147; φ=5 mm, Metrohm) and, by titration with a freshly prepared 0.01N NaOH solution to ph 7 (Dosimat 665 Metrohm), the secreted HCl were determined in the effluent in each case collected at an interval of 15 minutes.
The gastric secretion was stimulated by continuous infusion of 1 μg/kg (=1.65 ml/h) of i.v. pentagastrin (left femoral vein) about 30 min after the end of the operation (i.e. after determination of 2 preliminary fractions). The substances to be tested were administered intraduodenally in a 2.5 ml/kg liquid volume 60 min after the start of the continuous pentagastrin infusion.
The body temperature of the animals was kept at a constant 37.8-38° C. by infrared irradiation and heat pads (automatic, stepless control by means of a rectal temperature sensor).

melting point [°C] | SMILES | Inhibition of acid secretion (%) [1] [%]
229 to 231 | Cc1nc2c(O[C@@H]3c4ccccc4C[C@H]3O)cc(C(=O)O)cn2c1C (relative stereo) [Example 8, 8-(trans-2,3-Dihydro-2-hydroxy-1-indenyloxy)-2,3-dimethyl-imidazo[1,2-a]pyridine-6-carboxylic acid] | –
261 to 262 | COC(=O)c1cc(N[C@@H]2c3ccccc3C[C@H]2O)c2nc(C)c(C)n2c1 (relative stereo) [Example 1, Methyl 8-(trans-2,3-dihydro-2-hydroxy-1-indenylamino)-2,3-dimethyl-imidazo[1,2-a]pyridine-6-carboxylate] | –
246 to 249 | Cc1nc2c(N[C@@H]3c4ccccc4C[C@H]3O)cc(C(=O)O)cn2c1C (relative stereo) [Example 2, 8-(trans-2,3-Dihydro-2-hydroxy-1-indenylamino)-2,3-dimethyl-imidazo[1,2-a]pyridine-6-carboxylic acid] | –
129 | Cc1nc2c(O[C@@H]3c4ccccc4CC[C@H]3O)cc(C(=O)N(C)C)cn2c1C.Cl (relative stereo) [Example 15, 6-(N,N-Dimethylamino-carbonyl)-2,3-dimethyl-8-(trans-1,2,3,4-tetrahydro-2-hydroxy-1-naphthalenyloxy)-imidazo[1,2-a]pyridine hydrochloride] | >30
142 to 143 | COCc1cc(O[C@@H]2c3ccccc3C[C@H]2O)c2nc(C)c(C)n2c1 (relative stereo) [Example 11, 8-(trans-2,3-Dihydro-2-hydroxy-1-indenyloxy)-6-methoxymethyl-2,3-dimethyl-imidazo[1,2-a]pyridine] | >30

Second part, the compound before the results:

SMILES | melting point [°C] | Inhibition of acid secretion (%) [1] [%]
Cc1nc2c(O[C@H]3c4ccccc4C[C@@H]3O)cc(C(=O)N(C)C)cn2c1C [Example 14, 8-[(1S,2S)-2,3-Dihydro-2-hydroxy-1-indenyloxy)-6-(N,N-dimethylamino-carbonyl)-2,3-dimethyl-imidazo[1,2-a]pyridine] | – | >30
Cc1nc2c(O[C@@H]3c4ccccc4C[C@H]3O)cc(C(=O)N(C)C)cn2c1C (relative stereo) [Example 9, 8-(trans-2,3-Dihydro-2-hydroxy-1-indenyloxy)-6-(N,N-dimethylamino-carbonyl)-2,3-dimethyl-imidazo[1,2-a]pyridine] | – | >30
COc1cccc2c1[C@@H](Oc1cc(C(=O)N(C)C)cn3c(C)c(C)nc13)[C@H](O)C2 (relative stereo) [Example 16, 8-(trans-2,3-Dihydro-2-hydroxy-7-methoxy-1-indenyloxy)-6-(N,N-dimethylamino-carbonyl)-2,3-dimethyl-imidazo[1,2-a]pyridine] | – | >30
Cc1cccc2c1[C@@H](Oc1cc(C(=O)N(C)C)cn3c(C)c(C)nc13)[C@H](O)C2 [Example 17] | – | >30
